From patent publication US20240285808A1, “MOLECULAR PROBES FOR IN VIVO DETECTION OF ALDEHYDES” (The General Hospital Corporation, priority 2021, published 2024) come the findings set out here.

The structures appear in SMILES notation. Several values for one entry are separate records, joined by “and”; a condition that tells them apart may be missing. Identical values can stand only once.

One series has as its system liver of BDL rats. The experiment in a line: LA-ICP-MS gadolinium imaging of rat liver after Gd-9 MRI. It counts as in vivo. Particulars: BDL rat liver harvested 30 min p.i. The method, then: LA-ICP-MS Gadolinium Imaging Analysis
Sample preparation. Harvested rat livers after MR imaging were immediately snapfrozen in OCT using liquid nitrogen, sectioned into 10-μm-thick slices, stored in −80° C. One slice was assessed by LA-ICP-MS directly. One adjacent slide was incubated with 0.1 mM Gd-9 at 37° C. for 2 h, followed with 0.2 mM NaBH3CN for 2 h and washed with PBS (3×10 min). Another adjacent slide was incubated with 0.1 mM Gd-9 and 10 mM hydrazine at 37° C. for 2 h, followed with 0.2 mM NaBH3CN for 2 hand washed with PBS (3×10 min). Similar procedures were carried out for human tissues. Slides were incubated with 0.1 mM Gd-9 at 37° C. for 2h, followed with 0.2 mM NaBH3CN for 2 h and washed with PBS (3×10 min).
Gadolinium mapping. Elemental images were collected from sections of liver tissue via laser ablation inductively coupled plasma mass spectrometry at the Biomedical National Elemental Imaging Resource (BNEIR). The instrumentation used was a New Wave Research 213 nm laser ablation system with a 10 cm^2 sample chamber, interfaced with an Agilent 7900 ICP-MS system. Samples were ablated in no-gas mode, with helium as a carrier gas at a flow rate of 600 L min^−1. […] Elemental imaging data was quantified using metal-doped gelatin standards prepared at BNEIR and National Institute of Standards and Technology (NIST) certified references material 1515 (apple leaves). […]

The next series has as its system liver of CDAHFD mice. As to the kind of experiment: MR imaging of liver in non-alcoholic steatohepatitis (CDAHFD) model. It counts as in vivo, mouse. Conditions: 20 min post injection. The source says:
Non-Alcoholic Steatohepatitis Liver Fibrosis Model:
A total of 40 C57BL/6 mice were used and randomized to each study group. To induce NASH, 6-week old, male C57BL/6 mice (Charles River Labs, Wilmington, MA) were fed a choline deficient, high fat diet (CDAHFD) consisting of 60 kcal % fat and 0.1% methionine (A06071302; Research Diets, New Brunswick, NJ) by weight. No animals were excluded from the study.
Three groups of mice were studied:
Group A, mice were fed CDAHFD for 2 (n=6), 6 (n=6), 10 (n=6) weeks and imaged with probe Gd-9.
Group B, mice were fed CDAHFD for 10 weeks followed by normal chow for 1 (n=6) or 4 weeks (n=6) and imaged with probe Gd-9.
Group C, mice were fed normal chow for 2, 6, 10, 11 or 14 weeks (n=10) and imaged with probe Gd-9.
Animals were anesthetized with isoflurane (1-2%) and placed in a specially designed cradle with body temperature maintained at 37° C. The inhaled isoflurane level was adjusted to maintain a respiration rate of 60±5 breaths per minute. The tail vein was cannulated for intravenous (i.v.) delivery of the contrast agent while the animal was positioned in the scanner. Imaging was performed at 4.7 T using a small bore animal scanner with a custom-built volume coil. Mice were imaged with a dose of 100 μmol/kg from 30 mM stock solution of Gd or Mn complex.
Following the imaging session, animals were sacrificed (75 min p.i.) and liver tissue was subjected to histopathologic analysis.
For liver imaging analysis, a region of interest (ROI) was manually traced encompassing the liver parenchyma while avoiding major blood vessels. A second ROI was placed on the dorsal muscle visible in the same image slice to quantify the signal intensity in the muscle for comparison. Seven ROIs were placed in the field of view without any tissue (air) to measure the variation in background signal. More than 20 axial slices per mouse across the entire liver were analyzed in this fashion. […] Contrast to noise ratio (CNR) was calculated by measuring the difference in signal intensity (SI) between liver and muscle and normalizing to the standard deviation of the signal in the air, eq 21. ΔCNR was calculated by subtracting CNR measured prior to probe injection (CNRPre) from CNR measured after injection (CNRPost), eq 22.
Mice were fed with CDAHFD or standard chow for 2, 6, or 10 weeks; two additional groups of mice received CDAHFD for 10 weeks and then standard chow for 1 or 4 weeks (FIG. 70; 2 wk, 6 wk, and 10 wk bars correspond to CDAHFD; 1 wk and 4 wk bars correspond to standard chow; “MRI” indicates MRI with Gd-9).

Take `NN1CCN(C(=O)CCC(C(=O)[O-])N2CCN(CC(=O)[O-])CCN(CC(=O)[O-])CCN(C(CCC(=O)N3CCN(N)CC3)C(=O)[O-])CC2)CC1.[Gd+3]` (stereo not drawn) [Gd-9, cis-1,4-Gd-(CHyd)2]: in the series on liver of BDL rats, the “Gd accumulation in fibrotic septa (LA-ICP-MS)” value is ~50 ppm. Besides, the “ΔCNR of liver (row head ACNR)” value in the series with liver of CDAHFD mice (2 wk CDAHFD) was 1.3±0.4 and 1.3 ± 0.3; in the series with liver of CDAHFD mice (6 wk CDAHFD), 2.1 ± 0.4; in the series with liver of CDAHFD mice (10 wk CDAHFD then 1 wk Withdrawal), 0.9±0.3; in the series with liver of CDAHFD mice (10 wk CDAHFD then 4 wk Withdrawal), 0.3±0.2; in the series on liver of CDAHFD mice (10 wk CDAHFD) it was 2.5±0.5; with liver of CDAHFD mice (Control (standard chow)), 0.1±0.4.
